Patent US11208412B2 (DAEGU-GYEONGBUK MEDICAL INNOVATION FOUNDATION, priority 2017, dated 2021)

Key:
Experiment in all cases: Kinase selectivity, DiscoverX scanMAX Kinase assay panel (% control)
Format in all cases: binding
[1] = biological target: T1, kinases of the scanMAX Kinase assay panel (Homo sapiens, UniProt P21127); conditions: CDC2L1; 1 uM
T1 construct: purchased DiscoverX Co. (contract measurement) scanMAX Kinase assay panel
Summary of the method: (§1)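 Each enzyme is treated with drug at 1 uM in DMSO, then signal is scaled between a positive control (0%) and DMSO (100%) to give % control. Kinases with % control under 35% are scored as inhibited.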

[2] = biological target: T2, kinases of the scanMAX Kinase assay panel (Homo sapiens, UniProt Q9Y2U5); conditions: MAP3K2; 1 uM
T2 construct: purchased DiscoverX Co. (contract measurement) scanMAX Kinase assay panel
T2 sequence (Q9Y2U5 1-619): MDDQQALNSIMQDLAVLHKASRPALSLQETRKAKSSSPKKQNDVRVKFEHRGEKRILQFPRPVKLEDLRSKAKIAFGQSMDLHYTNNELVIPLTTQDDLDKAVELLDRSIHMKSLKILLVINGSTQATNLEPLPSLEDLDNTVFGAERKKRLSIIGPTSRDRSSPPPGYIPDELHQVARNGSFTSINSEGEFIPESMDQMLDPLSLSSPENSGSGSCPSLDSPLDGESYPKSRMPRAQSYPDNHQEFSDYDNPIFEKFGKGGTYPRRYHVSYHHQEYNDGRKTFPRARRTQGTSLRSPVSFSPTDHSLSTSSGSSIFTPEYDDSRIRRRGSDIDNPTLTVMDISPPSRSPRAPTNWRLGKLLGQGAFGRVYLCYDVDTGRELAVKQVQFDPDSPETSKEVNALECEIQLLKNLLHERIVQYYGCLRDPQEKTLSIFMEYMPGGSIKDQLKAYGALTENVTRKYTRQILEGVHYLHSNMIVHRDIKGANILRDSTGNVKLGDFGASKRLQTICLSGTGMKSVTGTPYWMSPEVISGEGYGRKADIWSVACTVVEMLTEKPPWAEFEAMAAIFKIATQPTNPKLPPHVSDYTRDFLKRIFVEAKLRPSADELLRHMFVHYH
Summary of the method: as §1

[3] = biological target: T3, kinases of the scanMAX Kinase assay panel (Homo sapiens, UniProt Q12866); conditions: MERTK; 1 uM
T3 construct: purchased DiscoverX Co. (contract measurement) scanMAX Kinase assay panel
T3 sequence (Q12866 21-999): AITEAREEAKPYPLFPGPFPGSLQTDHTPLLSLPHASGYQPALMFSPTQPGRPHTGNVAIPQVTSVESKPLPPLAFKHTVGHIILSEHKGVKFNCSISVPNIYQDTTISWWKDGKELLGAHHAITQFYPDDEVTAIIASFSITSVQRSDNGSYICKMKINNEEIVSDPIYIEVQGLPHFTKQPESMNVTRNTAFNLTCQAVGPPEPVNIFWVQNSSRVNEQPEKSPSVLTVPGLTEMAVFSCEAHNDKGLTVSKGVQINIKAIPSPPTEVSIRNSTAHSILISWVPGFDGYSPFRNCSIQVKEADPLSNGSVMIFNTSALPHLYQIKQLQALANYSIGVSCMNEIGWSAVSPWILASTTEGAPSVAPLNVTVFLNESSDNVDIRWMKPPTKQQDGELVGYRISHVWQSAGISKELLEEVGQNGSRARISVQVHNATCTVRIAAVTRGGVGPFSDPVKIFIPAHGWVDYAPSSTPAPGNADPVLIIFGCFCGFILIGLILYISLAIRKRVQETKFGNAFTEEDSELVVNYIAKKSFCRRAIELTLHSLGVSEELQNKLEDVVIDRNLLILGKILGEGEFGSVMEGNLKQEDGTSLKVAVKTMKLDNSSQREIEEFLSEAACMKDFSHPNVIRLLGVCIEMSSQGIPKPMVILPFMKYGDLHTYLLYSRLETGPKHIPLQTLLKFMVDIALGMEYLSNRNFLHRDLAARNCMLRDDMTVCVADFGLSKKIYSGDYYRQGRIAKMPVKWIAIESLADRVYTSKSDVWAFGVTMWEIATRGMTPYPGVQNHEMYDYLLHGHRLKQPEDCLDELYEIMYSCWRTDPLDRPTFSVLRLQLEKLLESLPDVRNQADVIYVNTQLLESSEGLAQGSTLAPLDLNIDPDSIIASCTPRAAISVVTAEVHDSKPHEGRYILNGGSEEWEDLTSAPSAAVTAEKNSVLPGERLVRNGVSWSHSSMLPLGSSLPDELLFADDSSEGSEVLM
Summary of the method: as §1

[4] = biological target: T4, kinases of the scanMAX Kinase assay panel (Homo sapiens, UniProt Q8NFD2); conditions: ANKK1; 1 uM
T4 construct: purchased DiscoverX Co. (contract measurement) scanMAX Kinase assay panel
T4 sequence (Q8NFD2 1-765): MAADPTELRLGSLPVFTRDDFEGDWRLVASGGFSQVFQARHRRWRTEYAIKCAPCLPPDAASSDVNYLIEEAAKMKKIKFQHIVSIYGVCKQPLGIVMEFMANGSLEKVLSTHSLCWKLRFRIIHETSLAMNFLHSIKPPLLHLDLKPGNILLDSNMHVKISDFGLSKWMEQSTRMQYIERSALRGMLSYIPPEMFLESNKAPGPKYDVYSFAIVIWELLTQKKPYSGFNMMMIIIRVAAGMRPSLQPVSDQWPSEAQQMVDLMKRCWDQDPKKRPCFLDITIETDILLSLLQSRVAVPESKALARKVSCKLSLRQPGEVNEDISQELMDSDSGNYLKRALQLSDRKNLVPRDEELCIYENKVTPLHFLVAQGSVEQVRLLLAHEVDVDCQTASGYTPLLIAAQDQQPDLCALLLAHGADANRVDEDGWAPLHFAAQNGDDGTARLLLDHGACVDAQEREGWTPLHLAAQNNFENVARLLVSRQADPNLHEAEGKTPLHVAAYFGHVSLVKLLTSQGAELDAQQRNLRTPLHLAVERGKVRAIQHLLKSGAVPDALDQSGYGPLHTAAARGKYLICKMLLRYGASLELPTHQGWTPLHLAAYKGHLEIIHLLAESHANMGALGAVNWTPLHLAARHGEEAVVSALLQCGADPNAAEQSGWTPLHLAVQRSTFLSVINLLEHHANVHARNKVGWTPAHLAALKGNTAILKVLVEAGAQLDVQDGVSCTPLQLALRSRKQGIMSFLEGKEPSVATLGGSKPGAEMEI
Summary of the method: as §1

[5] = biological target: T5, kinases of the scanMAX Kinase assay panel (Homo sapiens, UniProt Q13555); conditions: CAMK2G; 1 uM
T5 construct: purchased DiscoverX Co. (contract measurement) scanMAX Kinase assay panel
Summary of the method: as §1

T1 sequence (P21127 whole entry): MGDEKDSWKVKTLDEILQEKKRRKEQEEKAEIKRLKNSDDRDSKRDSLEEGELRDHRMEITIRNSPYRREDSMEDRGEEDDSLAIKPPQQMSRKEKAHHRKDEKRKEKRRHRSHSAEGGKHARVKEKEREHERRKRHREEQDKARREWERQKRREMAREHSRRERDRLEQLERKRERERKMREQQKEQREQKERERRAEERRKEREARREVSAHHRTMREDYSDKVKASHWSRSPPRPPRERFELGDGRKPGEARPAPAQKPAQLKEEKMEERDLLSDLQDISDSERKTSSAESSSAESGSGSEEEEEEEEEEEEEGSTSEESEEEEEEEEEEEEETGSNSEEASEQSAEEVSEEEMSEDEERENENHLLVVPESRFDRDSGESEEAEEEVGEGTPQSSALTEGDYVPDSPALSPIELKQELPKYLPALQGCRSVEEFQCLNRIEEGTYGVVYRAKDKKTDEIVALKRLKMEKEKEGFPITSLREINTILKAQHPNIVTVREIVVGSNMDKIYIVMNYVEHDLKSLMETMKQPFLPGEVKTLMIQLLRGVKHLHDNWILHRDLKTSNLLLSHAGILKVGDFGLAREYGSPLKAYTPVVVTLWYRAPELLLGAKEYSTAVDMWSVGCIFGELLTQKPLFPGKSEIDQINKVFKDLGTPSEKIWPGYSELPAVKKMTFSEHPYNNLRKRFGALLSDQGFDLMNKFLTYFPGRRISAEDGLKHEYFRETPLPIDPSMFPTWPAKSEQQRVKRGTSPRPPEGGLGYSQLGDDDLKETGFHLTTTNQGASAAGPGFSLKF
T5 sequence (Q13555 whole entry): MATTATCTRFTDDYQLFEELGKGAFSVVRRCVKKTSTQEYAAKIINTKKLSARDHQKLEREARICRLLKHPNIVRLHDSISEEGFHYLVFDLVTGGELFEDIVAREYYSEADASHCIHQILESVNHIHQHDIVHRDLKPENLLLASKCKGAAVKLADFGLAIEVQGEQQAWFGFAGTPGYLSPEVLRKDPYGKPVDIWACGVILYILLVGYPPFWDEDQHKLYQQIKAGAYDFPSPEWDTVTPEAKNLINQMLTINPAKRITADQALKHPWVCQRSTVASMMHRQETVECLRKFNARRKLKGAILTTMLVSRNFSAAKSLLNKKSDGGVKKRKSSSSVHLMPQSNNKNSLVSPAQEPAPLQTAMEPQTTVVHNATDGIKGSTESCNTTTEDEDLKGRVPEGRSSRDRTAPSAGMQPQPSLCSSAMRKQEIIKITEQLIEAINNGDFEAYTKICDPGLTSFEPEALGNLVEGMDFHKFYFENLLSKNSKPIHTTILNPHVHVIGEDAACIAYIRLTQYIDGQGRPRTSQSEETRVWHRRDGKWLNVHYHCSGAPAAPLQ

Structure (SMILES) | remaining binding at 1 µM [1] | remaining binding at 1 µM [2] | remaining binding at 1 µM [3] | remaining binding at 1 µM [4] | remaining binding at 1 µM [5]
CC1(Nc2nc(Nc3cnn([C@H]4CCN(C5COC5)C[C@@H]4F)c3Cl)nc3[nH]cc(C#N)c23)CC1 [Example 52, 2-((5-chloro-1-((3S,4S)-3-fluoro-1-(oxetane-3-yl)piperidine-4-yl)-1H-pyrazole-4-yl)amino)((1-methylcyclopropyl)amino)-7H-pyrrolo[2,3-d]pyrimidine-5-carbonitrile] | 84% | 0.05% | 0% | 15% | 53%
CNc1nc(Nc2ccc(C(=O)N3CCOCC3)cc2OC)nc2[nH]cc(C#N)c12 [Example 1, 2-((2-methoxy-4-(morpholine-4-carbonyl)phenyl)amino)-4-(methylamino)-7H-pyrrolo[2,3-d]pyrimidine-5-carbonitrile] | 100% | 85% | 96% | 82% | 88%
CCNc1nc(Nc2ccc(C(=O)N3CCC(N4CCOCC4)CC3)cc2OC)nc2[nH]cc(C(F)(F)F)c12 [Example 104, (4-((4-(ethylamino)-5-(trifluoromethyl)-7H-pyrrolo[2,3-d]pyrimidine-2-yl)amino)-3-methoxyphenyl)(4-morpholinopiperidine-1-yl)methanone] | 99% | 92% | 93% | 95% | 80%
